Measurements from patent publication US10053484B2, “Heterocycle-substituted xanthene dyes” (Biotium, Inc., priority 2009, dated 2018).
Entries after “also recorded” stand apart in the source; their conditions may differ.

What was measured:
[1] = Measurement of absorption and emission spectra of free dyes or dye-protein conjugates; assay type: physicochemical; conditions: for Absorption Wavelengths / Emission Wavelengths: in PBS
Description: The absorption spectra of free dyes or dye-antibody conjugates were measured on Beckman Coulter DU800 in pH 7.4 PBS. The concentrations of the dyes or conjugates were adjusted so that the maximal absorbance was around 1.0. The fluorescence emission spectra of the free dyes and conjugates were measured on a Hitachi F4500.

[2] = Photostability comparison of dye-antibody conjugates on stained fixed Jurkat cells (microscopy, Cy5 filter set); assay type: physicochemical; conditions: for photostability: goat anti-mouse IgG conjugates on fixed Jurkat cells, continuous illumination, relative fluorescence vs. time (FIG. 5)
Description: Jurkat cells were fixed and stained with intracellular mouse anti-human CD3 primary antibody (0.375 ug) followed by 1 ug of goat-anti-mouse IgG conjugated to AlexaFluor633 (DOL 2.3), compound No. 6 (DOL 2.3), DyLight649 (DOL˜6), or Alexa Fluor 647 (DOL˜6). The DOL for each conjugate was the optimal value for each dye. Images were taken on an Olympus mercury arc lamp microscope using a Cy5 filter set. The relative fluorescence vs. time for each sample was plotted (FIG. 5). Traditionally, sulfonated cyanine dyes, such as Alexa Fluor 647 and DyLight 647, have been used for the 633 nm excitation by the HeNe laser with red emission. More recently, rhodamine-based Alexa Fluor 633 dye has become commercially available.

HeLa cells = experiment: Mitochondrial staining of live HeLa cells; assay type: cell-based; conditions: 200 nM compound No. 16 or 10 uM compound No. 74, DMEM, 30 minutes, 37° C. (FIG. 9)
Description: HeLa cells were cultured for 2 days at 37° C., 5% CO2. Live cells were stained with 200 nM compound No. 16 or 10 uM compound No. 74 in DMEM media for 30 minutes at 37° C., 5% CO2. Cells were washed in fresh medium and cells were viewed on a mercury arc lamp microscope using a Cy5 filter set. Images were taken using a CCD camera and Image Pro Express software.

Jurkat cells = experiment: Mitochondrial staining as a function of membrane potential (flow cytometry, with/without CCCP); assay type: cell-based; conditions: 50 nM dye with and without 50 uM CCCP, 30 minutes, FL4 channel (FIG. 10)
Description: Live Jurkat cells were stained with 50 nM Compound No. 16 with and without 50 uM carbonyl cyanide m-chlorophenyl hydrozone (CCCP) for 30 minutes prior to analysis by flow cytometry on the FL4 channel of a BD FACS Calibur. Treatment with CCCP disrupts the mitochondrial membrane potential. The graph depicts the relative geometric mean fluorescence of the stained population treated without (Control) or with 50 uM CCCP. […] The membrane potential-dependent mitochondrial staining by compound No. 16 makes the dye useful for assessing the health of cells as only healthy cells have functional mitochondria and have normal membrane potential. For example, cells undergoing apoptosis are known to lose membrane potential.

[3] = Measurement of absorption and emission spectra of free dyes or dye-protein conjugates; assay type: physicochemical; conditions: in MeOH
[4] = cited from earlier work; for absorption wavelength: commercial cyanine dyes used for the 633 nm laser
[5] = known xanthene dyes, background

Compound	Absorption Wavelengths [1]	Emission Wavelengths [1] [nm]	other results
CC1N=c2c(cc3c(c2S(=O)(=O)O)Oc2c(cc4c(c2S(=O)(=O)O)NC(C)C4(C)C)C=3c2nccn2CCCCCC(=O)ON2C(=O)CCC2=O)C1(C)C (centres unmarked) [Compound No. 1]	548 nm	571	–
CC1CC(C)(C)Nc2c1cc1c(c2S(=O)(=O)O)Oc2c(S(=O)(=O)O)c3c(cc2=C1c1nccn1CCCCCC(=O)ON1C(=O)CCC1=O)C(C)CC(C)(C)N=3 (centres unmarked) [Compound No. 2]	559 nm	579	–
CC1CC(C)(C)Nc2c1cc1c(c2S(=O)(=O)O)Oc2c(S(=O)(=O)O)c3c(cc2=C1c1[nH]cnc1C(=O)O)C(C)CC(C)(C)N=3 (centres unmarked) [Compound No. 3]	529 nm	548	–
CC1(C)C=C(CS(=O)(=O)O)c2cc3c(cc2=N1)Oc1cc2c(cc1C=3c1nccn1CCCCCC(=O)ON1C(=O)CCC1=O)C(CS(=O)(=O)O)=CC(C)(C)N2 [Compound No. 4]	603 nm	626	–
CCN1c2cc3c(cc2C(CS(=O)(=O)[O-])=CC1(C)C)C(c1nccn1CCCCCC(=O)ON1C(=O)CCC1=O)=c1cc2c(cc1O3)=[N+](CC)C(C)(C)C=C2CS(=O)(=O)O [Compound No. 5]	622 nm	649	–
CCN1c2cc3c(cc2C(CS(=O)(=O)O)=CC1(C)C)C(c1nccn1CCCCCC(=O)NCCOCCOCCOCCOCCOCCOCCOCCOCCOCCOCCOCCOC(=O)ON1C(=O)CCC1=O)=c1cc2c(cc1O3)=[N+](CC)C(C)(C)C=C2CS(=O)(=O)[O-] [Compound No. 6]	622 nm	649	absorption peak ([1]; FIG. 1: conjugated to goat anti-mouse IgG in PBS): about 633 nm; photostability [2]: significantly more photostable than DyLight 633; also recorded: approximately similar stability to that of Alexa Fluor 633; also recorded: very photostable
CC1(C)C=C(CS(=O)(=O)[O-])c2cc3c(c4c2N1CCC4)Oc1c2c4c(cc1=C3c1nccn1CCCCCC(=O)ON1C(=O)CCC1=O)C(CS(=O)(=O)O)=CC(C)(C)[N+]=4CCC2 [Compound No. 7]	638 nm	660	–
CCN1c2cc3c(cc2C(C)=CC1(C)C)C(c1nccn1Cc1ccc(CCl)cc1)=c1cc2c(cc1O3)=[N+](CC)C(C)(C)C=C2C.[Cl-] [Compound No. 9]	622 nm	648	–
CCN1c2cc3c(cc2C(C)=CC1(C)C)C(c1nccn1C)=c1cc2c(cc1O3)=[N+](CC)C(C)(C)C=C2C [Compound No. 16]	–	–	localization of dye in live cells (HeLa cells): concentrated in the mitochondria; membrane potential dependence of mitochondrial staining (Jurkat cells): stains mitochondria in a membrane potential-dependent fashion; also recorded: sensitive to disruption of the mitochondrial membrane potential; Absorption Wavelengths [3]: 622 nm; Emission Wavelengths [3]: 648 nm
CCN1c2cc3c(cc2C(C)=CC1(C)C)C(c1nc2ccccc2n1C)=c1cc2c(cc1O3)=[N+](CC)C(C)(C)C=C2C.[Cl-] [Compound No. 70]	–	–	Absorption Wavelengths [3]: 628 nm; Emission Wavelengths [3]: 656 nm
CCN1c2cc3c(cc2C(C)=CC1(C)C)C(c1n(C)cc[n+]1C)=c1cc2c(cc1O3)=[N+](CC)C(C)(C)C=C2C [Compound No. 74]	–	–	localization of dye in live cells (HeLa cells): concentrated in the mitochondria; Absorption Wavelengths [3]: 660 nm; Emission Wavelengths [3]: 688 nm
CCN1/C(=C/C=C/C=C/C2=[N+](CCCCCC(=O)O)c3ccc(S(=O)(=O)O)cc3C2(C)C)C(C)(C)c2cc(S(=O)(=O)[O-])ccc21 [Cy5]	–	–	absorption wavelength [4]: ~650 nm
Alexa Fluor 647 [reference compound]	–	–	time to being essentially totally bleached ([2]; goat anti-mouse IgG conjugates on fixed Jurkat cells (FIG. 5)): about 1 minute; photostability [2]: poor photostability; absorption wavelength [4]: ~650 nm
carboxy-rhodamine 110	–	–	absorption maxima [4, 5]: 502 nm; emission maxima [4, 5]: 524 nm

Continued, in another order:

Absorption Wavelengths [1]	Emission Wavelengths [1] [nm]	Compound	other results
592 nm	615	CC1CC(C)(C)Nc2c1cc1c(c2S(=O)(=O)[O-])Oc2c(S(=O)(=O)O)c3c(cc2=C1c1n(CCCCCC(=O)ON2C(=O)CCC2=O)cc[n+]1C)C(C)CC(C)(C)N=3 (centres unmarked) [Compound No. 29]	–
680 nm	701	CC1(C)C=C(CS(=O)(=O)[O-])c2cc3c(c4c2N1CCC4)Oc1c2c4c(cc1=C3c1n(CCCCCC(=O)ON3C(=O)CCC3=O)cc[n+]1CCCS(=O)(=O)O)C(CS(=O)(=O)[O-])=CC(C)(C)[N+]=4CCC2 [Compound No. 75]	–
622 nm	649	CCN1c2cc3c(cc2C(CS(=O)(=O)[O-])=CC1(C)C)C(c1nccn1CCCCCC(=O)ON1C(=O)CCC1=O)=c1cc2c(cc1O3)=[N+](CCCS(=O)(=O)O)C(C)(C)C=C2CS(=O)(=O)O [compound 10]	–
485 nm	508	N=c1ccc2c(-c3[nH]cnc3C(=O)O)c3ccc(N)cc3oc-2c1 [compound 21]	–
599 nm	~620	CCN1c2cc3c(cc2C(C)=CC1(C)C)C(c1ccncc1C(=O)[O-])=c1cc2c(cc1O3)=[N+](CCCCCC(=O)O)C(C)(C)C=C2C [compound 23]	–
642 nm	662	CC1(C)C=C(CS(=O)(=O)O)c2cc3c(cc2=N1)Oc1cc2c(cc1C=3c1n(CCCCCC(=O)ON3C(=O)CCC3=O)cc[n+]1CCCS(=O)(=O)O)C(CS(=O)(=O)[O-])=CC(C)(C)N2 [compound 71]	–
660 nm	681	CCN1c2cc3c(cc2C(CS(=O)(=O)[O-])=CC1(C)C)C(c1n(CC(=O)N2CCC(C(=O)ON4C(=O)CCC4=O)CC2)cc[n+]1CCCS(=O)(=O)O)=c1cc2c(cc1O3)=[N+](CC)C(C)(C)C=C2CS(=O)(=O)[O-] [compound 72]	–
593 nm	614	CC1CC(C)(C)Nc2c1cc1c(c2S(=O)(=O)[O-])Oc2c(S(=O)(=O)O)c3c(cc2=C1c1n(CCCCCC(=O)ON2C(=O)CCC2=O)cc[n+]1CCCS(=O)(=O)O)C(C)CC(C)(C)N=3 (centres unmarked) [compound 76]	–
578 nm⁻¹	–	C/N=c1\cc2oc3cc(NC)c(S(=O)(=O)O)cc3c(-c3nccn3CCCCCC(=O)O)c-2cc1S(=O)(=O)O [compound 77]	–
533 nm	550	O=C(O)CCCCCn1ccnc1-c1c2cc/c(=N/CC(F)(F)F)cc-2oc2cc(NCC(F)(F)F)ccc12 [compound 84]	–
627 nm	698	CCN1c2cc3c(cc2C(C)=CC1(C)C)C(c1nccs1)=c1cc2c(cc1O3)=[N+](CC)C(C)(C)C=C2C [compound 85]	–
647 nm	676	CCN1c2cc3c(cc2C(C)=CC1(C)C)C(c1cocn1)=c1cc2c(cc1O3)=[N+](CC)C(C)(C)C=C2C [compound 87]	–
